The results in this text go back to US11274131B2, “IgM-mediated receptor clustering and cell modulation” (MAYO FOUNDATION FOR MEDICAL EDUCATION AND RESEARCH, priority 2007, dated 2022).

In one test the test system is matured mouse DC. Description: Antigen uptake assay, matured mouse DC. Format: cell-based. As to the method: For transducing DC with the virus, 1 ml of supernatant containing the scrambled virus or shDNA containing dominant negative TREM-2 virus was mixed with 2 ml of RPMI. Cytokines were added to a final concentration of 10 ng/ml murine GM-CSF and 1 ng/ml murine IL-4 at day 2 of DC culture. Cells were maintained for another 3 days before using the DC for antigen uptake assay as mentioned above or for analysis of phosphorylation status of DAP12 and Syk proteins.
(§1) Antigen uptake experiments were carried out as described previously (Radhakrishnan et al. (2005) Proc. Natl. Acad. Sci. U.S.A. 102:11438-11443). Day 5 DC were matured with TLR ligand CpG-ODN for mouse DC, or with pI:C for human DC. The matured cells were incubated with ovalbumin labeled with FITC or APC and control antibody or B7-DC XAb for two hours, washed and analyzed by FACSCALIBUR™ (Becton Dickinson). In studies involving inhibitors, cells were pretreated 30 minutes as indicated or at 10 μM concentration prior to addition of control antibody or B7-DC XAb. In vivo antigen uptake assays involving wild type or TREM-2−/− mice were carried out by intravenous injection of 10 μg of control antibody or B7-DC XAb on three consecutive days (days −1, 0 and +1). Ovalbumin coupled to FITC was injected in the right foot pad at 1 mg/ml in PBS at […]. The draining lymph node cells were harvested 48 hours after injection of antigen, and stained with anti-mouse CD11c-PE. The data are expressed as percent green cells (ovalbumin-FITC) that are positive for CD11c.

The subject of another test is mouse DC. Description: Calcium flux assay, mouse DC. Type of test: cell-based. As for the experimental part: Changes in the levels of intracellular Ca^2+ were assessed in Indol-loaded cells by flow cytometry as described previously (Takahashi et al. (2005) J. Exp. Med. 201:647-657). Briefly, 5×10^6 DC/ml were incubated with 5 μM Indo-1 (Calbiochem) at 37° C. for 30 minutes. The cells were washed twice in serum free media and resuspended at 10^6/ml in PBS containing 0.5% BSA. The samples were analyzed by flow cytometry using a UV laser. Violet (390 nm) and blue (500 nm) fluorescence emissions were recorded. Baseline was recorded for two minutes. Antibody was added to the cell suspension (10 μg/ml of control antibody or B7-DC XAb) and the measurements were recorded for 8 additional minutes. In blocking experiments, mouse or human DC were pre-incubated with 10 μg/ml of purified anti-mouse B7-DC antibody (TY-25) or purified anti-human B7-DC antibody (MIH18) for 15 minutes, followed by collection of data for calcium flux as described above. Ionomycin added at 1 μg/ml after 2 minutes served as a positive control. The blue to violet ratio was calculated using FlowJo software (Tristar, Ashland, Oreg.).
(In general: Calcium assays in cells follow changes in intracellular calcium, usually with a dye or a luminescent sensor.)

Test [1] concerns mouse bone marrow-derived DC. The test can be described thus: Immunoblot of DAP12 and Syk phosphorylation in mouse DC. Type of test: cell-based. As to the method:
FIG. 6A to 6C is a series of histograms and pictures showing that TREM-2 is recruited into the MTAb-induced cap on mouse DC and expression of TREM-2 is important for MTAb-induced phosphorylation of the adapter DAP-12 and the protein kinase Syk. FIG. 6A: six day cultures of bone marrow-derived mouse DC were differentiated in GM-CSF and IL-4 were tagged with antibodies specific for the class II molecule IA^b (25-9-17-APC) and for TREM-2 (237916-PE) for 15 minutes prior to stimulation with the MTAb B7-DC XAb (open histograms) or with isotype control antibody sHIgM39 (filled histograms). Cells were fixed in 0.1% paraformaldehyde prior to analysis by flow cytometry. FRET between PE and APC was assessed collecting light emitted by APC following excitation of PE with a 488 nm laser. Expression of TREM-2 on the cells was assessed by staining with 237916-PE antibody alone (open histogram) or isotype control antibody (closed histogram, bottom-right panel). For FIG. 6B, mouse bone marrow-derived DC were transduced on day 2 of culture with a retrovirus expressing an […] specific for TREM-2 or a control virus containing a scrambled sequence. On day 5 of culture, the transduced cells were not treated (0′ time), activated with the isotype control antibody sHIgM39, or activated with B7-DC XAb for 5 minutes. DAP12 was immunoprecipitated from cell lysates with antibody MC457, resolved by electrophoresis, and the blotted filters were probed with the phosphotyrosine-specific antibody 4G10. FIG. 6C: the lysates used in the experiments from FIG. 6B were immunoprecipitated with the Syk-specific antibody (4D10) and analyzed by western blot for the presence of phosphotyrosine.
For transducing DC with the virus, 1 ml of supernatant containing the scrambled virus or shDNA containing dominant negative TREM-2 virus was mixed with 2 ml of RPMI. Cytokines were added to a final concentration of 10 ng/ml murine GM-CSF and 1 ng/ml murine IL-4 at day 2 of DC culture. […]
In experiments involving assessment of the phosphorylation status of various protein kinases using whole cell lysate, dendritic cells of mouse or human origin or Jurkat cells were stimulated at the indicated times with control antibody or B7-DC XAb, and were lysed on ice for 10 minutes in 1 ml buffer containing 20 mM Tris-HCl, 40 mM NaCl, 5 mM EDTA, 50 mM NaF, 30 mM Na4P2O7, 0.1% BSA, 1 mM Na3VO4, 1 mM PMSF, 5 μg/ml aprotinin, 10 μg/ml leupeptin, and 1% Triton X-100. […] Tyrosine-phosphorylated proteins were detected using the anti-phosphotyrosine specific antibody, 4G10, followed by goat anti-mouse IgG coupled to Horse Radish Peroxidase (Santa Cruz Biotechnology) and the SuperSignal detection system (Pierce Biotechnology, Rockford, Ill.). […]
On the technique in general: Immunoblotting shows a protein as a band on a membrane.

For test [2], the system named is CD11c+ draining lymph node cells. Description: In vivo antigen uptake by CD11c+ draining lymph node cells. As to conditions: systemic antibody. On the set-up: species or system mouse. As for the experimental part: FIG. 7A is a pair of pictures of western blot analysis for phosphorylation of DAP12 and Syk in B7-DC XAb or control antibody-treated mouse DC, as indicated. FIG. 7B is a graph plotting percent CD11c+ inguinal lymph node cells in mice after OVA-FITC was introduced into the footpads of mice treated systemically with isotype control antibody or the MTAb B7-DC XAb (n=3/group). Cells were analyzed by flow cytometry 24 hours after OVA-FITC introduction.
as §1, with “The draining lymph node cells were harvested 48 hours after injection of antigen, and stained with anti-mouse CD11c-PE.” left out

Where [3] appears, read: DC transduced with scrambled shDNA.

Consider “B7-DC XAb: human monoclonal IgM from a Waldenstrom's macroglobulinemia patient that binds and cross-links B7-DC on DC”, for which, in the test with matured mouse DC (DC from CD40 KO mice), the antigen uptake result is recorded as “displayed enhanced antigen uptake”. In addition, the “ovalbumin uptake by matured DC” value was “enhanced ovalbumin uptake” with matured mouse DC (setting [3]) and “did not regain the ability to take up ovalbumin” in the test on matured mouse DC (TREM-2 KO DC). For the same substance, the intracellular calcium signal result with mouse DC is listed as “prolonged calcium signals”. The “phosphorylation of DAP12 and Syk” value was “proceeded in the same manner” in test [1] (setting [3]); “absence of phosphorylation of DAP12 and Syk” in test [1] (DC transduced with shDNA for TREM-2); “not induced” in test [1] (TREM-2 KO DC); “readily induced” in test [1] (wild type DC). For the same substance, the “uptake of labeled ovalbumin by CD11c+ lymph node cells” value in test [2] (TREM-2 KO mice) was “had no effect on uptake”. Moreover, the “uptake of labeled ovalbumin in lymph nodes” value in test [2] (wild type mice) was “significantly activated uptake of labeled ovalbumin”.
